Consider seven molecules from patent publication US7902361B2, “Pyrimidin-4-yl-3, 4-thione compounds and their use in therapy” (Cyclacel Limited, priority 2003, dated 2011).

Assay type in all cases: biochemical
One experiment has as its target CDK2/cyclin A (Homo sapiens, UniProt P24941). Description: Kinase assay CDK2/cyclin A. The following applies: Ki calculated (Cheng-Prusoff) from experimentally determined IC50 and Km,ATP; read-out: Kinase Inhibition Ki CDK2 - cyclin A. The essentials:
(§1)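 Radiometric assays measured transfer of radioactive phosphate from ATP onto polypeptide substrates, using 2-4 μg recombinant active enzyme in buffer typically containing 25 mM β-glycerophosphate, 20 mM MOPS, 5 mM EGTA, 1 mM DTT and 1 mM Na3VO3 at pH 7.4. Reactions were stopped on ice, filtered on P81 or GF/C plates and washed with orthophosphoric acid. Incorporated radioactivity was scintillation-counted.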

A further experiment deals with CDK7/cyclin H (Homo sapiens, UniProt P50613). Description: Kinase assay CDK7/cyclin H. The following applies: Ki calculated (Cheng-Prusoff) from experimentally determined IC50 and Km,ATP; read-out: Kinase Inhibition Ki CDK7 - cyclin H. The essentials: (§2)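 Radiometric filter assays used recombinant kinases or complexes (2-4 μg) with appropriate polypeptide substrates in pH 7.4 β-glycerophosphate/MOPS buffer. Reactions were started with 15 mM MgCl2 and 100 μM ATP containing [γ-32P]-ATP and run at 30° C. Phosphate incorporated into substrate was counted by scintillation after washing.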
Chain of CDK7/cyclin H (P50613 whole entry, species assumed): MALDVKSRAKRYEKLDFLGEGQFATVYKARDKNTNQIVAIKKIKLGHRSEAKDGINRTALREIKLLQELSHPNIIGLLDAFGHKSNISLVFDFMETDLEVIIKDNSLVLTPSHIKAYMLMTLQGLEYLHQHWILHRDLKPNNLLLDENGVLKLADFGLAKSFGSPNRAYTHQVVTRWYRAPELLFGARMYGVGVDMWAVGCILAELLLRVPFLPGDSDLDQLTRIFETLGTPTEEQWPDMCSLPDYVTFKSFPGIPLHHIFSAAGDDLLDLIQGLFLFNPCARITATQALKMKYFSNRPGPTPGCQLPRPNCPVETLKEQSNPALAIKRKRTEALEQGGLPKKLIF
Chain of CDK7/cyclin H (P51946 whole entry partner, species assumed): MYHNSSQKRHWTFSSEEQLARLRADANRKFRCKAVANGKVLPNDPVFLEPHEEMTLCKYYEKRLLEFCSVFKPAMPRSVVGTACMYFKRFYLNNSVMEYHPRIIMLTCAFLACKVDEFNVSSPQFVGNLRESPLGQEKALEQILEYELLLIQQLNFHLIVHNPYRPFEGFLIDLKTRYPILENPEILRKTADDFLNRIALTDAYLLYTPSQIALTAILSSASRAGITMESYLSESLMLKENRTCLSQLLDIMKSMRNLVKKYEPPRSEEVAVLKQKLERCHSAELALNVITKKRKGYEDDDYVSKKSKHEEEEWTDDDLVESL

In the next experiment the target is T1, aurora A (Homo sapiens, UniProt O14965).
T1 sequence (O14965 1-403): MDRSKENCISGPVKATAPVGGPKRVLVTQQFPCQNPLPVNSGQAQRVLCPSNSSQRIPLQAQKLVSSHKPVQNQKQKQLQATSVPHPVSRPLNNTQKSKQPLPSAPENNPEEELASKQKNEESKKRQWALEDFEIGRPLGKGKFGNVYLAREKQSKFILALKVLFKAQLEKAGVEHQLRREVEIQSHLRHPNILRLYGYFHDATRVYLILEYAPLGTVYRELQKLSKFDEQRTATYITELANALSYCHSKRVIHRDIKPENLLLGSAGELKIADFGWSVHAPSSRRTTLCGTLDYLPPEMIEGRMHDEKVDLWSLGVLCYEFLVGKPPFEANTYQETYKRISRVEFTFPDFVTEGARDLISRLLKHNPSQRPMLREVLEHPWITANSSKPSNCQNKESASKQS
Description: Kinase assay aurora A. The following applies: Ki calculated (Cheng-Prusoff) from experimentally determined IC50 and Km,ATP; read-out: Kinase Inhibition Ki Aurora A. Here is the method:
The compounds from the examples above were investigated for their ability to inhibit the enzymatic activity of various protein kinases. This was achieved by measurement of incorporation of radioactive phosphate from ATP into appropriate polypeptide substrates. Recombinant protein kinases and kinase complexes were produced or obtained commercially. Assays were performed using 96-well plates and appropriate assay buffers (typically 25 mM β-glycerophosphate, 20 mM MOPS, 5 mM EGTA, 1 mM DTT, 1 mM […], pH 7.4), into which were added 2-4 μg of active enzyme with appropriate substrates. […] Reactions were stopped on ice, followed by filtration through p81 filterplates or GF/C filterplates (Whatman Polyfiltronics, Kent, UK). After washing 3 times with 75 mM aq orthophosphoric acid, plates were dried, scintillant added and incorporated radioactivity measured in a scintillation counter (TopCount, Packard Instruments, Pangbourne, Berks, UK). Compounds for kinase assay were made up as 10 mM stocks in DMSO and diluted into 10% DMSO in assay buffer.

Another experiment concerns the target T2, GSK3β (Homo sapiens, UniProt P49841).
T2 construct: purchased New England Biolabs
Put plainly: GSK3β in vitro kinase assay. The following applies: recombinant human GSK3β, 100 μM ATP. Here is the method: Both isoforms of GSK3 (α and β) are involved in the regulation of glycogen synthase activity—key enzyme in the glycogen metabolism.
A 10-point titration was set up to determine the IC50 values of selected example compounds against GSK3β. Assays were performed using 96-well microtiter plates with a final volume of 25 μL per well. Each assay contained 1.5 units of GSK3β(New England Biolabs), 200 μM CREB phosphopeptide ([…]pSYR, Alta Biosciences), 20 mM Tris HCl pH7.5, 5 mM DTT, 15 mM MgCl2 supplemented with 100 μM ATP and 0.5 μCi of [γ-^32P] ATP plus or minus inhibitor in 2% DMSO. Assays were carried out for 30 minutes at 30° C. before stopping the reaction by the addition of an equal volume of 75 mM aqueous phosphoric acid. Samples were then spotted onto a p81 filterplate (Whatman) and a vacuum was applied. Wells were washed 3 times with 200 μL of dilute aqueous phosphoric acid before the addition of 50 μL Microscint 40 per well. Incorporation of radioactivity was determined on a Topcount microplate scintillation counter (Packard).

The next experiment has as its target CDK2/cyclin E (Homo sapiens, UniProt P24941). Description: Kinase assay CDK2/cyclin E. The following applies: Ki calculated (Cheng-Prusoff) from experimentally determined IC50 and Km,ATP; read-out: Kinase Inhibition Ki CDK2 - cyclin E. An outline of the steps:
as §1

Another experiment addresses CDK4/cyclin D1 (Homo sapiens, UniProt P11802). Put plainly: Kinase assay CDK4/cyclin D1. The following applies: Ki calculated (Cheng-Prusoff) from experimentally determined IC50 and Km,ATP; read-out: Kinase Inhibition Ki CDK4 - cyclin D1. An outline of the steps:
as §2

Another experiment deals with CDK1/cyclin B (Homo sapiens, UniProt P06493). Description: Kinase assay CDK1/cyclin B (radioactive phosphate incorporation). The following applies: Ki calculated (Cheng-Prusoff) from experimentally determined IC50 and Km,ATP; read-out: Kinase Inhibition Ki CDK1 - cyclin B. The essentials:
as §1

For the next experiment, the target named is CDK9/cyclin T1 (Homo sapiens, UniProt P50750). Put plainly: Kinase assay CDK9/cyclin T1. The following applies: Ki calculated (Cheng-Prusoff) from experimentally determined IC50 and Km,ATP; read-out: Kinase Inhibition Ki CDK9 - cyclin T1. The essentials:
as §2

Chain of CDK1/cyclin B (P06493 whole entry, species assumed): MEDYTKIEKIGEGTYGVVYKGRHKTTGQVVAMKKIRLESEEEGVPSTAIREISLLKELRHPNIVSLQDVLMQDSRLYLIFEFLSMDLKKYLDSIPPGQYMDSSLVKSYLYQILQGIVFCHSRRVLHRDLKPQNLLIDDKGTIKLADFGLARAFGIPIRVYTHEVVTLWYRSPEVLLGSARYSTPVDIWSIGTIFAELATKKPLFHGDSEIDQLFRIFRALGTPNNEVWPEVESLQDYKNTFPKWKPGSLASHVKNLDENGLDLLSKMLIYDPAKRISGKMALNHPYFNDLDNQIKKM
Chain of CDK1/cyclin B (P14635 whole entry partner, species assumed): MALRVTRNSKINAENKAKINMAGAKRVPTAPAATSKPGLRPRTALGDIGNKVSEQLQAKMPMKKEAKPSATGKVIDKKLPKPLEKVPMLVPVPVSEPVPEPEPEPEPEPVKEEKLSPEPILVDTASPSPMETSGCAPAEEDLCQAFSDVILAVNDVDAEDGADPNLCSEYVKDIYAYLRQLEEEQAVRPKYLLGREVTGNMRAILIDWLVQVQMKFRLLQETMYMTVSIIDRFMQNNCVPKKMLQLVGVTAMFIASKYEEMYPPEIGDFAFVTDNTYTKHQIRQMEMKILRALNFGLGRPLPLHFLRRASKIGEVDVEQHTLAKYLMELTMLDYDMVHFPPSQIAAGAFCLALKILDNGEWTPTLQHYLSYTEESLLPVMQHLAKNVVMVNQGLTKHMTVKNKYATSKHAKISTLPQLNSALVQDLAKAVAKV
T2 sequence (P49841 whole entry): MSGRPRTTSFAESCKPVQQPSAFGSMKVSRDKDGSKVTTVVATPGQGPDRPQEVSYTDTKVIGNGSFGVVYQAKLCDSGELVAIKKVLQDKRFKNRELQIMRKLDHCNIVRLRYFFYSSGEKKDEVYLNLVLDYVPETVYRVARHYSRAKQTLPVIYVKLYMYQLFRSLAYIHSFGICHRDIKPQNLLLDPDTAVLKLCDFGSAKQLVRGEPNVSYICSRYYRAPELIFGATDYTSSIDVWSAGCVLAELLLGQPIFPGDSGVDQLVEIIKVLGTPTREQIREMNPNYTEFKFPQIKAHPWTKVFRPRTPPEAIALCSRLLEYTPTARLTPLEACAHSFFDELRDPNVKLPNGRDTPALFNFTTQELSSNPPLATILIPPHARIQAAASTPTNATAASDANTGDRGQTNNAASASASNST
Chain of CDK4/cyclin D1 (P11802 whole entry, species assumed): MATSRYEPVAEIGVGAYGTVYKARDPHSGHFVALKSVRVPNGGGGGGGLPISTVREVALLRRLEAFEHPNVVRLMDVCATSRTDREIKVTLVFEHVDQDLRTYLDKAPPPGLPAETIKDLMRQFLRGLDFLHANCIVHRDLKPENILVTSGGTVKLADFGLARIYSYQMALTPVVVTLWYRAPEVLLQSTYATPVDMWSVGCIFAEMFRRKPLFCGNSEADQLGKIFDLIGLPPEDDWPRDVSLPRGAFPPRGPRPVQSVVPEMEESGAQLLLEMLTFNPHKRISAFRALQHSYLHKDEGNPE
Chain of CDK4/cyclin D1 (P24385 whole entry partner, species assumed): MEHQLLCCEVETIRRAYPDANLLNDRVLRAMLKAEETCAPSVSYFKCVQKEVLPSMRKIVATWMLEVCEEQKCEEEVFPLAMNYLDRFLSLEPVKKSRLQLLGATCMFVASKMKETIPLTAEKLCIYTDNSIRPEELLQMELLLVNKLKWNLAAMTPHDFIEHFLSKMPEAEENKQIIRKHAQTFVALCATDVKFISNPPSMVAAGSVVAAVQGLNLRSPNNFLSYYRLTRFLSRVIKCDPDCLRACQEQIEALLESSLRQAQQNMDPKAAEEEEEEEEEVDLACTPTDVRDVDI
Chain of CDK9/cyclin T1 (P50750 whole entry, species assumed): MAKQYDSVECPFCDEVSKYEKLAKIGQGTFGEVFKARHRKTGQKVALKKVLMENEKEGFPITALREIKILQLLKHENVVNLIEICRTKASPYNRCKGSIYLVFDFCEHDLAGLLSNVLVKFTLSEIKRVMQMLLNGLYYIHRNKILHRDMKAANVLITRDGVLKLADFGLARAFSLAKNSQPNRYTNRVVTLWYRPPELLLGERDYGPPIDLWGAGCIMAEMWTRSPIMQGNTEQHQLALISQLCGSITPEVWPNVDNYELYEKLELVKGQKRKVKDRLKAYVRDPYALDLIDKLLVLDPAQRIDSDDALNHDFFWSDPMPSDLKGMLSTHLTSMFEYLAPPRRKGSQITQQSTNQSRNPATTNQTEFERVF
Chain of CDK9/cyclin T1 (O60563 whole entry partner, species assumed): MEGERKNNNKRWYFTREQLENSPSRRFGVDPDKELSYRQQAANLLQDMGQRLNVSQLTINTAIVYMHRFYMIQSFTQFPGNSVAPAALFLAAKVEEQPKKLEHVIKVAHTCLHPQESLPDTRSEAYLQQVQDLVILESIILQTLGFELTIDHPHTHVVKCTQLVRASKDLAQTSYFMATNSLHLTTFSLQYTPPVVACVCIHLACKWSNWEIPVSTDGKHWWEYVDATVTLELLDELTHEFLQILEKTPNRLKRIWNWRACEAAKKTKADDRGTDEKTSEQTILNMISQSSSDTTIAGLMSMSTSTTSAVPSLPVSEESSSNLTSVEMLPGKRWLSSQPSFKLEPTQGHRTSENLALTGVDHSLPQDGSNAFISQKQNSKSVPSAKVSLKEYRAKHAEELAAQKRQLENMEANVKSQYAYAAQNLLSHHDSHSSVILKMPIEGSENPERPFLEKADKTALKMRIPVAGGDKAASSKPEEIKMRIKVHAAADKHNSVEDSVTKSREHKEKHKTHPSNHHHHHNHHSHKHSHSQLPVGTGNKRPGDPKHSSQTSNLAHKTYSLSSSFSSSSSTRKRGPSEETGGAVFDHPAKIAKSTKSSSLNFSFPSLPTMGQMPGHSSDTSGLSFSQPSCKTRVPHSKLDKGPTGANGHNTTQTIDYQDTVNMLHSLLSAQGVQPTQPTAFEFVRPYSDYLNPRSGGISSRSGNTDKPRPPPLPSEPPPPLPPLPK

Usually Ki stands for a dissociation constant, usually derived from enzyme kinetics or from competition with a known ligand. One may read the IC50 as the concentration at which inhibition is half-maximal. Turning to `Cc1c(-c2ccnc(Nc3ccc(N4CCNCC4)c(Cl)c3)n2)sc(=O)n1C` [Compound 44, 5-[2-(3-Chloro-4-piperazin-1-yl-phenylamino)-pyrimidin-4-yl]-3,4-dimethyl-3H-thiazol-2-one], the Ki on CDK2/cyclin A was 99 nM; at CDK7/cyclin H, 19 nM; at aurora A it was 38 nM; at CDK2/cyclin E, 62 nM; on CDK4/cyclin D1, 36 nM; at CDK1/cyclin B it was 86 nM. In addition, the Ki at CDK9/cyclin T1 was 3.4 nM. On GSK3β, the IC50 was 17.8 nM.
With `Cc1c(-c2ccnc(Nc3cccc(CNS(=O)(=O)C(F)(F)F)c3)n2)sc(=O)n1C` [Compound 58, N-{3-[4-(3,4-Dimethyl-2-oxo-2,3-dihydro-thiazol-5-yl)-pyrimidin-2-ylamino]-benzyl}-C,C,C-trifluoro-methanesulfonamide], the Ki at CDK2/cyclin A was 600 nM; at CDK7/cyclin H, 96 nM; at aurora A it was 840 nM; at CDK2/cyclin E it was 100 nM; at CDK4/cyclin D1, 5100 nM; on CDK1/cyclin B it was 1100 nM. Moreover, the Ki at CDK9/cyclin T1 was 6.4 nM. For the same molecule, the IC50 at GSK3β was 23.3 nM.
With `Cc1c(-c2ccnc(Nc3ccc(N4CCN(Cc5ccccc5)CC4)cc3)n2)sc(=O)n1C` [Compound 69, 5-{2-[4-(4-Benzyl-piperazin-1-yl)-phenylamino]-pyrimidin-4-yl}-3,4-dimethyl-3H-thiazol-2-one], the Ki was 950 nM at CDK2/cyclin A; 12 nM at CDK7/cyclin H; 39 nM at aurora A; 160 nM at CDK2/cyclin E; 100 nM on CDK4/cyclin D1; 1700 nM at CDK1/cyclin B. The Ki at CDK9/cyclin T1 was 21 nM. The IC50 at GSK3β amounted to 96 nM.
Regarding `Cc1c(-c2ccnc(Nc3cccc(CNS(C)(=O)=O)c3)n2)sc(=O)n1C` [Compound 55, N-{3-[4-(3,4-Dimethyl-2-oxo-2,3-dihydro-thiazol-5-yl)-pyrimidin-2-ylamino]-benzyl}-methane-sulfonamide], the Ki at CDK2/cyclin A is 42 nM; at CDK7/cyclin H it was 110 nM; on aurora A it was 46 nM; on CDK2/cyclin E it was 39 nM; on CDK4/cyclin D1 it was 110 nM; at CDK1/cyclin B it was 160 nM. Besides, the Ki on CDK9/cyclin T1 was 2.2 nM. Further, on GSK3β, the IC50 was determined as 82 nM.
On to `CCn1c(C)c(-c2ccnc(Nc3ccc(C)c(O)c3)n2)sc1=O` [Compound 47, 3-Ethyl-5-[2-(3-hydroxy-4-methyl-phenylamino)-pyrimidin-4-yl]-4-methyl-3H-thiazol-2-one], for which the Ki is 87 nM at CDK2/cyclin A; 17 nM on CDK7/cyclin H; 53 nM at aurora A; 15 nM on CDK2/cyclin E; 1800 nM on CDK4/cyclin D1; 180 nM at CDK1/cyclin B. Further, the Ki at CDK9/cyclin T1 is 3 nM. For the same molecule, at GSK3β, the IC50 was found to be 30.8 nM.
Regarding `CC(=O)N1CCN(c2cccc(Nc3nccc(-c4sc(=O)n(C)c4C)n3)c2)CC1` [Compound 49, 5-{2-[3-(4-Acetyl-piperazin-1-yl)-phenylamino]-pyrimidin-4-yl}-3,4-dimethyl-3H-thiazol-2-one], the Ki was 3000 nM at CDK2/cyclin A; 1100 nM at CDK7/cyclin H; 110 nM on aurora A; 1300 nM at CDK2/cyclin E; 9.7 nM at CDK4/cyclin D1; 930 nM at CDK1/cyclin B. Moreover, the inhibitory constant (Ki) at CDK9/cyclin T1 is 30 nM. Also, the IC50 at GSK3β turned out to be 380 nM.
Take `Cc1c(-c2ccnc(Nc3ccc(S(=O)(=O)NCCO)cc3)n2)sc(=O)n1C` [Compound 72, 4-[4-(3,4-Dimethyl-2-oxo-2,3-dihydro-thiazol-5-yl)-pyrimidin-2-ylamino]-N-(2-hydroxy-ethyl)-benzenesulfonamide]: the Ki on CDK2/cyclin A is 2.9 nM; on CDK7/cyclin H, 1200 nM; at aurora A it was 510 nM; on CDK2/cyclin E, 0.5 nM; on CDK4/cyclin D1 it was 830 nM; on CDK1/cyclin B, 5.4 nM. For the same molecule, the Ki at CDK9/cyclin T1 was 11 nM. In addition, the IC50 at GSK3β is 8.3 nM.
